# Measurements taken from patent US4906657A, “Bicyclo heptane and bicyclo octane substituted inhibitors of cholesterol synthesis” (Warner-Lambert Company, priority 1988, dated 1990).
# System: biosynthesis of cholesterol (rat liver homogenate)
# Assay: CSI screen (inhibition of sterol synthesis; incorporation of 14C-acetate into non-saponifiable lipid by rat liver homogenate)
# Type: biochemical
# Conditions: 50% inhibition of sterol synthesis over a one-hour period
# Method: The ability of compounds of the present invention to inhibit the biosynthesis of cholesterol was measured by a method (designated CSI screen) which utilizes the procedure described by R. E. Dugan, et al, Archiv. Biochem. Biophys., (1972), 152, 21-27. In this method, the level of HMG-CoA enzyme activity in standard laboratory rats is increased by feeding the rats a chow diet containing 5% cholestryramine for four days, after which the rats are sacrificed.
# The rat livers are homogenized, and the incorporation of […] into non-saponifiable lipid by the rat liver homogenate is measured. The micromolar concentration of compound required for 50% inhibition of sterol synthesis over a one-hour period is measured, and expressed as an IC50 value.
compound,measurement,value
C=C1CC2(C)CC1C(c1ccccc1)=C2C=CC1CC(O)CC(=O)O1 (centres unmarked),IC50,440 nM
C=C1CC2(C)CC1C(c1ccccc1)=C2/C=C/[C@@H](O)C[C@@H](O)CC(=O)OCC (relative stereo),IC50,440 nM
